Source: patent publication US20240000746A1, “New Cooling Agents and Preparations Containing Them” (Symrise AG, priority 2020, published 2024)
“And” between values parts separate entries of the source, which are not always exact repeats. Equal entries are not always repeated.

molecular target: T1, human TRPM8 receptor (Homo sapiens, UniProt Q7Z2W7); assay: Assay on TRPM8 modulators: Ca2+ signal (Fluo-4) in HEK293 cells stably transfected with human TRPM8; type: cell-based; set-up: Relative TRPM8 activation (%): concentration or dose not given beside the values; conditions: not given
T1 construct: expressed in transfected cells
T1 sequence (Q7Z2W7 whole entry): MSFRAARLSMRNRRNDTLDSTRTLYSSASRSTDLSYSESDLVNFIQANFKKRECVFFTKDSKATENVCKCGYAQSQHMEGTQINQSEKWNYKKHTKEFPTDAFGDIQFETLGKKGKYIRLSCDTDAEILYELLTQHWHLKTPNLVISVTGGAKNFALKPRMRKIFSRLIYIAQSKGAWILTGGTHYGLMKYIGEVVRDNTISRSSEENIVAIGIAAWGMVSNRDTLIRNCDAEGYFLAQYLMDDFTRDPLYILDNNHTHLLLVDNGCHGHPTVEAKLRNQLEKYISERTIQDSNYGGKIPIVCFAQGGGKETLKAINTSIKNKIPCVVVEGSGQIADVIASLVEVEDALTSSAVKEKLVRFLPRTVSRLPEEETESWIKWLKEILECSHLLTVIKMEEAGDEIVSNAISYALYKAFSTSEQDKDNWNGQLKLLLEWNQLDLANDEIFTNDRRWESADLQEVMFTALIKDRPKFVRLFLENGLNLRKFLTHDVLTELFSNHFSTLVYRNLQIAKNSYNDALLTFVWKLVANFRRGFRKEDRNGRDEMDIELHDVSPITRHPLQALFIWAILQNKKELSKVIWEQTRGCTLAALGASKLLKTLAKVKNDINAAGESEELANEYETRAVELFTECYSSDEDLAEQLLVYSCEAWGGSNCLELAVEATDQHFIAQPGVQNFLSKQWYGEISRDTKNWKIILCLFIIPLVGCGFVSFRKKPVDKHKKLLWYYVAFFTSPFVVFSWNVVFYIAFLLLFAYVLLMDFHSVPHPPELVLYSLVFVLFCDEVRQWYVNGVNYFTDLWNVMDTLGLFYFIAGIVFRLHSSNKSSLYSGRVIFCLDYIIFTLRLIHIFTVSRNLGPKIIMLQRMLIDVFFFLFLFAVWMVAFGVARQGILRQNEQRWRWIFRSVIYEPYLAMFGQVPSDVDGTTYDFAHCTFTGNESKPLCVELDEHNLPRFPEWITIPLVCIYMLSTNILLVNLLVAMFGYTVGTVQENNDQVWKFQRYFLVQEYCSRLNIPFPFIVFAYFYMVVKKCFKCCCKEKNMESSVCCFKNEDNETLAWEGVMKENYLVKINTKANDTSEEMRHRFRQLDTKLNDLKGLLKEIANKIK
Text: The starting point for cloning the human TRPM8 receptor is an LnCaP cDNA bank. This is commercially available (e.g. BioChain, Hayward, USA) or can be produced from the androgene-sensitive human prostate adenocarcinoma cell line LnCaP (e.g. ATCC, CRL1740 or ECACC, 891 1021 1) using standard kits.
The coding TRPM8 sequence (see e.g. http://www. ncbi.nlm.nih.gov/entrez/viewer.fcgi?db=nuccore&id=109689694) can be PCR amplified and cloned using standard methods. The human TRPM8 gene isolated in this way was used to produce the plasmid plnd_M8. Alternatively, the TRPM8 gene can also be produced synthetically.
As a test cell system, a stably transfected HEK293 cell line was produced with human TRPM8 DNA. Preference is given to HEK293, which offers the possibility of inducing TRPM8 expression with tetracycline via the introduced plasmid.
A test similar to the one already described in the literature by Behrendt H. J. et al., Br. J. Pharmacol. 141, 2004, 737-745, is performed. The agonisation or antagonisation of the receptor can be quantified by means of a Cab-sensitive dye (e.g. FURA, Fluo-4 etc.). Agonists alone cause an increase in the Ca^2+ signal; antagonists cause a reduction in the Ca^2+ signal in the presence of e.g. menthol (in each case detected via the dye Fluo-4, which has different fluorescence properties due to Ca^2+ ions).
First, a fresh culture of transformed HEK cells is prepared in cell culture flasks in a manner known per se. The HEK293-TRPM8 test cells are detached from the cell culture flasks using trypsin and 40,000 cells/well are seeded with 100 μl medium in 96-hole plates (Greiner #655948 poly-D-lysine-coated). Tetracycline is added to the growth medium to induce receptor TRPM8 (DMEM/HG, 10% FCS tetracycline-free, 4 mM L-glutamine, 15 μg/ml blasticidin, 100 μg/ml hygromycin B, 1 μg/ml tetracycline).
The following day, the cells are loaded with Fluo-4AM dye and the test is performed. The procedure is as follows: Addition of 100 μl/well staining solution Ca-4 Kit (RB 141, Molecular Devices) to each 100 μl medium (DMEM/HG, 10% FCS tetracycline-free, 4 mM L-glutamine, 15 μg/ml blasticidin, 100 μg/ml hygromycin B, 1 μg/ml tetracycline).
Incubation in incubator, 30 minutes/37° C./5% CO2, 30 minutes/RT.
Preparation of the test substances (different concentrations in 200 μl HBSS buffer), as well as positive controls (different concentrations of menthol, icilin or lonomycin in 200 μl HBSS buffer) and negative controls (only 200 μl HBSS buffer) addition of the test substances in amounts of 50 μl/well and measurement of the fluorescence change (e.g. in the assay device FLIPR, Molecular Devices or NovoStar, BMG) at 485 nm excitation, 520 nm emission, and evaluation of the potency of the different substances/concentrations and determination of the EC50 values.
The test substances are used in triplicates in concentrations of 0.1-200 μM in the assay. Normally, the compounds are kept ready in DMSO solutions and diluted down to a maximum DMSO concentration of 2% for the assay.
With the aid of the assay described, the activity of the active substances is determined in relation to activation of the TRPM8 channel. This is done in a concentration-dependent manner. As a standard, 6 to 10 concentrations are measured for each active substance. From the determined activity values, the EC50 value can be determined as the inflection point of the sigmoidal curve using a mathematical method (4-parameter or 5-parameter logistic curve fitting). These are standard methods of biochemistry that are quite familiar to the skilled person.

| SMILES | Relative TRPM8 activation (%) |
| --- | --- |
| Cc1ccc(N2CCC(C(=O)NCc3cccc4c3OCO4)CC2)nc1 [Compound 5 a] | 2.4% |
| CCN(Cc1ccnc(N2CCC(C)CC2)c1)Cc1cccc2c1OCO2 [Compound 19 a] | 3.4% |
| c1ccc(-c2cccc(CNCc3cccc4c3OCO4)c2)nc1 [Compound 22 c] | 3.6% |
| c1ccc(-c2cc(CNCc3cccc4c3OCO4)co2)cc1 [Compound 31 a] | 0% |

The next lines start with the values.

| Relative TRPM8 activation (%) | SMILES |
| --- | --- |
| −0.8% | CCCC1CCN(c2cc(CNCc3cccc4c3OCO4)ccn2)CC1 [Compound 18 a] |
| 3% | c1cc(CNCc2ccnc(-n3cccc3)c2)c2c(c1)OCO2 [Compound 22 a] |
| 1.3% | c1cc(CNCc2cc3ccccc3o2)c2c(c1)OCO2 [Compound 32 a] |
| 0% | c1ccc(-c2cc(CNCc3cccc4c3OCO4)cs2)cc1 [Compound 43 a] |
| 0% | O=C(NCc1cccc2c1OCO2)c1ccnc(N2CCCCC2)c1 [Compound 51 a] |

same assay, conditions: HEK293-TRPM8 cells, Fluo-4; read-out: Activity in vitro assay (EC50)

| SMILES | EC50 |
| --- | --- |
| COc1ccc(CNCc2ccnc(N3CCCCC3)c2)cc1 [Compound 87] | 6.95 nM |
| CC(NCc1cccc2c1OCO2)c1ccnc(N2CCCCC2)c1 (centres unmarked) [Example 8] | 150 nM |
| CC1CCCCN1c1cc(CNCc2cccc3c2OCO3)ccn1 (centres unmarked) [Example 14] | 330 nM |
| CC1(C)CCN(c2cc(CNCc3cccc4c3OCO4)ccn2)CC1 [Example 15] | 2630 nM |
| CC1CC(C)CN(c2cc(CNCc3cccc4c3OCO4)ccn2)C1 (centres unmarked) [Example 16] | 2530 nM |
| CCC1CCCN(c2cc(CNCc3cccc4c3OCO4)ccn2)C1 (centres unmarked) [Example 18] | 2010 nM |
| COc1cccc(CNCc2ccnc(N3CCCCC3)c2)c1OC [Example 23] | 760 nM |
| CCOc1cccc(CNCc2ccnc(N3CCCCC3)c2)c1OC [Example 24] | 1110 nM |
| c1cc(CCNCCc2ccnc(N3CCCCC3)c2)c2c(c1)OCO2 [Example 34] | 800 nM |
| c1ccc(CNCc2ccnc(N3CCCCC3)c2)cc1 [Example 39] | 60 nM |
| CCNC(=O)[C@@H]1C[C@H](C)CC[C@H]1C(C)C [WS-3, L-menthanecarboxylic acid-N-ethylamide, reference compound] | 1720 nM |

Other lines, results leading:

| EC50 | SMILES |
| --- | --- |
| 115 nM | c1cc(CNCc2ccnc(N3CCCCC3)c2)c2c(c1)OCO2 [Example 1] |
| 13000 nM | c1cc(CNCc2ccnc(N3CCOCC3)c2)c2c(c1)OCO2 [Example 2] |
| 8350 nM | CC(C)C(NCc1cccc2c1OCO2)c1ccnc(N2CCCCC2)c1 (centres unmarked) [Example 11] |
| 2010 nM | CC1CCN(c2cc(CNCc3cccc4c3OCO4)ccn2)CC1 [Example 12] |
| 600 nM | CC1CCCN(c2cc(CNCc3cccc4c3OCO4)ccn2)C1 (centres unmarked) [Example 13] |
| 720 nM | CC1(C)CCCN(c2cc(CNCc3cccc4c3OCO4)ccn2)C1 [Example 17] |
| 1190 nM | c1cc(CNCc2ccnc(N3CCSCC3)c2)c2c(c1)OCO2 [Example 22] |
| 5860 nM | CCOc1cccc(CNCc2ccnc(N3CCCCC3)c2)c1OCC [Example 25] |
| 100 nM and ≤ 1000 nM | COc1ccc(CNCc2ccnc(N3CCCCC3)c2)cc1 [Example 27] |
| 6500 nM | CSc1cc(CNCc2cccc3c2OCO3)ccn1 [Example 29] |
| 150 nM | Cc1ccc(CNCc2ccnc(N3CCCCC3)c2)cc1 [Example 41] |
| 600 nM | COc1cccc(CNCc2ccnc(N3CCCCC3)c2)c1 [Example 49] |
| 15800 nM | COc1ccc(CNCc2ccnc(N3CCSCC3)c2)cc1 [Example 58] |
| 1770 nM | COc1ccc(CNCc2cccc(N3CCCC3)c2)cc1 [Example 64] |

test system: oral cavity; assay: Sensory tasting of cooling intensity by trained panellists; type: in vivo, human; conditions: 5 ppm in 5% sugar solution, tasted 40 seconds, rated after one minute, scale 1 (very weak) to 9 (very strong)
Procedure: In order to quantify the cooling effect, comparative tests are carried out using menthan-3-carboxylic acid-N-ethylamide as a reference. For these comparative tests, the skilled person replaces the compound or compounds to be used according to the invention with menthan-3-carboxylic acid-N-ethylamide (also referred to as WS-3). Then the intensities of the cooling effects of the respective compounds or active substances are sensory evaluated by trained panellists (n=10 to 11) as described below and compared with each other.
The investigation of the cooling intensity was carried out as follows: Test solutions containing 5 ppm of the compounds of the invention were each tasted in a 5% sugar solution as well as a corresponding solution containing 30 ppm of the reference substance WS-3. […] The corresponding test solutions were tasted by the panellists for a time of exactly 40 seconds, rinsing the entire oral cavity with the corresponding test solution and then spitting out the sample or reference solution. Following the tasting, the test persons rated the respective cooling intensity after one minute according to a scale from 1 (very weak) to 9 (very strong).

| SMILES | Cooling intensity |
| --- | --- |
| COc1ccc(C(C)NCc2ccnc(N3CCCCC3)c2)cc1 (centres unmarked) [Compound 85] | 2.1 |
